{"source": "patent US20090036434A1", "about": "“Substituted aryl and heteroaryl derivatives as modulators of metabolism and the prophylaxis and treatment of disorders related thereto” (Arena Pharmaceuticals, Inc., priority 2004, published 2009)", "key": {"RUP3 [1]": {"molecular_target": "T1, RUP3 (Mus musculus, UniProt Q7TQP3)", "T1 construct": "randomly grouped (n=5) to receive a RUP3 agonist (either Compound B3 or B124); from tissue; host or cells: whole animal (male C57bl/6J mice), in vivo", "T1 sequence (Q7TQP3 1-335)": "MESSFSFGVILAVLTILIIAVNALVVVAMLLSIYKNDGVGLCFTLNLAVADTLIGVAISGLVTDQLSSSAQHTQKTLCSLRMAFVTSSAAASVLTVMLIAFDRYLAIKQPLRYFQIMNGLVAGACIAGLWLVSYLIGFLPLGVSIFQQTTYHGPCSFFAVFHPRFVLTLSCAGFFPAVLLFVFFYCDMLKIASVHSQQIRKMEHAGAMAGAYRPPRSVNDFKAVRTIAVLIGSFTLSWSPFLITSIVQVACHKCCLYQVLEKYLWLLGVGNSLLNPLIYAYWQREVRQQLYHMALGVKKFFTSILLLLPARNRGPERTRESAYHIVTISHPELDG", "assay": "Oral glucose tolerance test (oGTT) in mice", "type": "in vivo", "details": "for Mean % Inhibition of Glucose Excursion: male C57bl/6J mice, dextrose 3 g/Kg oral; for Blood glucose after glucose challenge: male C57bl/6J mice, 1, 3 or 10 mg/Kg p.o.", "protocol": "Male C57bl/6J mice at approximately 8 weeks of age were fasted for 18 hours and randomly grouped (n=5) to receive a RUP3 agonist (either Compound B3 or B124) at 1, 3 or 10 mg/Kg. Compounds were delivered orally via a gavage needle (p.o., volume 10 mL/Kg). At time 0, levels of blood glucose were assessed using a glucometer (Elite XL, Bayer), and mice were administered either vehicle (20% hydroxypropyl-beta-cyclodextrin) or test compound. Thirty minutes after administration of test compound, levels of blood glucose were again assessed, and mice were administered dextrose orally at a dose of 3 g/Kg. Blood glucose measurements were then taken 20 min, 40 min, 60 min and 120 min after this time."}, "RUP3 [2]": {"molecular_target": "T2, RUP3 (Homo sapiens, UniProt Q8TDV5)", "T2 construct": "expressed in transfected cells; host or cells: melanophores (cultured per Potenza and Lerner 1992), electroporated with the RUP3 expression vector (pCMV)", "T2 sequence (Q8TDV5 1-335)": "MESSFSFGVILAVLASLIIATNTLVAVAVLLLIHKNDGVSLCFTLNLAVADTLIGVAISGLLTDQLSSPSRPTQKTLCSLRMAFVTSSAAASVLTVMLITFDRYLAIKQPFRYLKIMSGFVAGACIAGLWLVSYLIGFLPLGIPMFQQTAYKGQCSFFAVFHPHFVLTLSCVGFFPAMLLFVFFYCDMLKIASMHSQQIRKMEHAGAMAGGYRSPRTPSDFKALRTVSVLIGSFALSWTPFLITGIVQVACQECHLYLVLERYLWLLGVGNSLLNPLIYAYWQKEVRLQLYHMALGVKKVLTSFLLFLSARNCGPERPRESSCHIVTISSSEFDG", "assay": "Melanophore dispersion assay, RUP3 dose responses", "type": "cell-based", "details": "melanophores transfected with RUP3 expression vector", "protocol": "Melanophores are maintained in culture as reported by Potenza, M. N. and Lerner, M. R., in Pigment Cell Research, Vol. 5, 372-378, 1992 and transfected with the RUP3 expression vector (pCMV) using electroporation. Following electroporation, the transfected cells are plated into 96 well plates for the assay. The cells are then allowed to grow for 48 hours in order to both recover from the electroporation procedure and attain maximal receptor expression levels.\nOn the assay day, the growth medium on the cells is replaced with serum-free buffer containing 10 nM melatonin. The melatonin acts via an endogenous Gi-coupled GPCR in the melanophores to lower intracellular cAMP levels. In response to lowered cAMP levels, the melanophores translocate their pigment to the center of the cell. The net effect of this is a significant decrease in the absorbance reading of the cell monolayer in the well, measured at […].\nAfter a 1-hour incubation in melatonin, the cells become completely pigment-aggregated. At this point a baseline absorbance reading is collected. Serial dilutions of test compounds are then added to the plate and compounds that stimulate RUP3 produce increases in intracellular cAMP levels. In response to these increased cAMP levels, the melanophores translocate their pigment back into the cell periphery. After one hour, stimulated cells are fully pigment-dispersed. The cell monolayer in the dispersed state absorbs much more light in the 600-650 nm range. The measured increase in absorbance compared to the baseline reading allows one to quantitate the degree of receptor stimulation and plot a dose-response curve.\nThe compounds in the above examples were screened using the melanophore dispersion assay, as described above."}}, "data": [{"compound": "CC(C)OC(=O)N1CCC(Oc2cc(Nc3ccc(S(C)(=O)=O)cc3F)ncn2)CC1", "note": "[Compound B3, 4-[6-(2-Fluoro-4-methanesulfonyl-phenylamino)-pyrimidin-4-yloxy]-piperidine-1-carboxylic acid isopropyl ester]", "values": [{"measurement": "Mean % Inhibition of Glucose Excursion", "setting": "RUP3 [1]; 1 mg/Kg p.o.", "result": 14.83, "unit": "%"}, {"measurement": "Mean % Inhibition of Glucose Excursion", "setting": "RUP3 [1]; 3 mg/Kg p.o.", "result": 22.03, "unit": "%"}, {"measurement": "Mean % Inhibition of Glucose Excursion", "setting": "RUP3 [1]; 10 mg/Kg p.o.", "result": 39.31, "unit": "%"}, {"measurement": "Blood glucose after glucose challenge", "setting": "RUP3 [1]", "result": "lowered blood glucose in a dose-dependent manner"}]}, {"compound": "Cc1ccc(Nc2cc(OC3CCN(C(=O)OC(C)(C)C)CC3)ncn2)cc1F", "note": "[Compound B16, 4-[6-(3-Fluoro-4-methyl-phenylamino)-pyrimidin-4-yloxy]-piperidine-1-carboxylic acid tert-butyl ester]", "values": [{"measurement": "EC50", "setting": "RUP3 [2]", "result": 62, "unit": "nM"}]}, {"compound": "COc1ccc(Nc2cc(OC3CCN(C(=O)OC(C)(C)C)CC3)ncn2)cc1F", "note": "[Compound B21, 4-[6-(3-Fluoro-4-methoxy-phenylamino)-pyrimidin-4-yloxy]-piperidine-1-carboxylic acid tert-butyl ester]", "values": [{"measurement": "EC50", "setting": "RUP3 [2]", "result": 128, "unit": "nM"}]}, {"compound": "CCCNc1ccc(Nc2cc(OC3CCN(C(=O)OC(C)C)CC3)ncn2)c(C)c1", "note": "[Compound B124, 4-[6-(2-Methyl-4-propylamino-phenylamino)-pyrimidin-4-yloxy]-piperidine-1-carboxylic acid isopropyl ester]", "values": [{"measurement": "Mean % Inhibition of Glucose Excursion", "setting": "RUP3 [1]; 1 mg/Kg p.o.", "result": 0, "unit": "%"}, {"measurement": "Mean % Inhibition of Glucose Excursion", "setting": "RUP3 [1]; 3 mg/Kg p.o.", "result": 5.49, "unit": "%"}, {"measurement": "Mean % Inhibition of Glucose Excursion", "setting": "RUP3 [1]; 10 mg/Kg p.o.", "result": 21.94, "unit": "%"}, {"measurement": "Blood glucose after glucose challenge", "setting": "RUP3 [1]", "result": "lowered blood glucose in a dose-dependent manner"}]}, {"compound": "CC(C)OC(=O)N1CCC(Oc2cc(Oc3ccc(Br)cc3F)ncn2)CC1", "note": "[Compound B143, 4-[6-(4-Bromo-2-fluoro-phenoxy)-pyrimidin-4-yloxy]-piperidine-1-carboxylic acidisopropyl ester]", "values": [{"measurement": "EC50", "setting": "RUP3 [2]", "result": 48, "unit": "nM"}]}]}
